Results on 1 compound are retold here after BindingDB's records for doi:10.1021/jm401292m (Mcgill University, 2014).

Usually IC50 stands for the concentration needed to halve the response being measured.

A short description of the assay: Antagonist activity at OXE receptor (unknown origin) expressed in neutrophils assessed as inhibition of 5-oxo-ETE-induced cell migration after 2 hrs by hematoxylin/chromotrope 2R staining-based microscopic analysis.

For `CCCCCCc1c(C(=O)CC(C)CC(=O)O)c2cc(Cl)ccc2n1C` (stereo unspecified), the IC50 was 454 nM.
